Results as given in patent US10227324B2 (Shanghai Haiyan Pharmaceutical Technology Co., Ltd., priority 2014, dated 2019).

tested on: NIH3T3 cells; test: Cytotoxicity by MTT assay, NIH3T3; format: cell-based; settings: Mus musculus, NIH3T3, 72 h, cytotoxicity class, read-out: NIH3T3 cell (IC50/nM)

SMILES | IC50 [nM]
CS(=O)(=O)C1(c2cc(-c3cnc(N)cc3C(F)(F)F)nc(N3CCOCC3)n2)CCCC1 [Compound S-10] | 1000 to 3000
CC(C)S(=O)(=O)C1(c2cc(-c3cnc(N)cc3C(F)(F)F)nc(N3CCOCC3)n2)CCC1 [Compound S-19] | 1000 to 3000
Nc1cc(C(F)(F)F)c(-c2cc(C3(S(=O)(=O)c4ccccc4)CCC3)nc(N3CCOCC3)n2)cn1 [Compound S-20] | 1000 to 3000

tested on: not listed separately; test: Metabolism stability assay in liver microsomes; format: in vitro ADME, mouse; settings: liver microsomal metabolism in mice
Description: Buffer A: 1 L solution of 100 mM potassium dihydrogen phosphate containing 1 mM EDTA (Sigma, V900157-100G) was prepared. Buffer B: 1 L solution of 100 mM dipotassium hydrogen phosphate containing 1 mM EDTA was prepared. Buffer C: 700 mL of buffer B was taken out and titrated with buffer A to pH 7.4.
2.1 10 μl of 10 mM compound to be tested and 10 μl of 10 mM ketanserin were taken out and 190 μl of pure acetonitrile was added to each of them to prepare 500 μM compound to be tested and ketanserin, respectively.
2.2 20 μl (20 mg/mL) of liver microsomes (XENOTECH, H0610) stock solution was added to 513.4 μl of buffer C on wet ice. 0.75 mg/mL liver microsomal solution was obtained.
2.3 1.5 μl of each of the above-mentioned compound to be tested and ketanserin solution was added to 498.5 μl of liver microsomal solution (0.7 5 mg/mL) respectively on wet ice. 1.5 μM mixed solution of compound to be tested and 1.5 μM mixed solution of ketanserin were obtained.
2.4 At the time points 0, 5, 15, 30, 45, and 60 min, 30 μl of the mixed solution of compound to be tested and 30 μl of the mixed solution of ketanserin were dispensed into the reaction plate on wet ice, respectively.
2.5 5 mg reduced coenzyme II (Roche, 10621706001) was weighed and dissolved in 1 mL of buffer C. 6 mM reduced coenzyme II solution was obtained. The reduced coenzyme II solution was dispensed into the reaction plate.
2.6 Imipramine was dissolved to give a 10 mM solution. 10 μl imipramine solution was added to 100 mL of blank acetonitrile to generate the internal reference.
2.7 At 0 min, 135 μL of iced acetonitrile (Merck, UN 1648) containing the internal reference was added to each well and then 15 μL of buffer C was added.
2.8 The reaction plate was placed into a 37° C. water bath incubator for 5 min. In the reaction plate, 15 μL of reduced coenzyme II solution was added to each well to initiate the reaction, and the time keeping was started. At the time points of 5, 15, 30, 45, and 60 min, 135 μL of iced acetonitrile containing the internal reference was added to each well to terminate the reaction.
2.9 The reaction plate was sealed with an aluminum film, placed on a vibration mixer and shaken at 500 rpm for 5 min. The plate was then centrifuged in a centrifuge at 3750 rp for 15 min.
2.10 The sample was diluted with pure water in accordance with the ratio of 1:1 and detected by LC/MS.
Half-life: 0.693/K (the slope by plotting based on the incubation time and logarithm of the concentration value)
Clearance ratio: (0.693/half-life)*(1/protein concentration (0.5 mg/mL))*(proportional factor)
Wherein, the K value and the proportional factor were calculated by those skilled in the art according to the methods described in the prior art and contained in the instructions of the liver microsome product.

SMILES | Clearance ratio (mL/min/kg) mouse [mL/min/kg]
Nc1cc(C(F)(F)F)c(-c2cc(C3(S(=O)(=O)c4ccccc4)CCC3)nc(N3CCOCC3)n2)cn1 [Compound S-20] | 5641.44
CC(C)(c1cc(-c2cnc(N)cc2Cl)nc(N2CCOCC2)n1)S(C)(=O)=O [Compound S-38, 4-chloro-5-(6-(2-(methylsulfonyl)prop-2-yl)-2-morpholinopyrimidin-4-yl)pyridin-2-amine] | 103.77
CC(C)(c1cc(-c2cnc(N)nc2C(F)(F)F)nc(N2CCOCC2)n1)S(C)(=O)=O [Compound S-45] | 89.54

Further lines, results first:

Clearance ratio (mL/min/kg) mouse [mL/min/kg] | SMILES
442.63 | CS(=O)(=O)C1(c2cc(-c3cnc(N)cc3C(F)(F)F)nc(N3CCOCC3)n2)CCC1 [Compound S-4]
100.1 | CS(=O)(=O)C1(c2cc(-c3cnc(N)nc3C(F)(F)F)nc(N3CCOCC3)n2)CC1 [Compound S-46]
39.75 | CS(=O)(=O)C1(c2cc(-c3cnc(N)cc3F)nc(N3CCOCC3)n2)CC1 [Compound S-82]
